Experiment [1] deals with HT-29. Description: Antiproliferative activity against human HT-29 cells assessed as reduction in cell viability incubated for 24 hrs by MTT assay. It counts as functional, cell-based. The settings on record: HT-29, 24 h. For orientation: Tetrazolium assays rely on reduction of a dye to a coloured formazan, in cell work by metabolically active cells.
Experiment [2] concerns HCT-116. Description: Antiproliferative activity against human HCT-116 cells assessed as reduction in cell viability incubated for 24 hrs by MTT assay. It counts as functional, cell-based. The settings on record: HCT-116, 24 h.
The subject of experiment [3] is HepG2. The experiment in a line: Antiproliferative activity against human HepG2 cells assessed as reduction in cell viability incubated for 24 hrs by MTT assay. It counts as functional, cell-based. To be noted: HepG2, 24 h.
Experiment [4] has as its system MCF7. Description: Antiproliferative activity against human MCF7 cells assessed as reduction in cell viability incubated for 24 hrs by MTT assay. It is filed as functional, cell-based. To be noted: MCF7, 24 h.
The subject of experiment [5] is L02. The experiment in a line: Cytotoxicity against human L02 cells assessed as cell viability incubated for 24 hrs by MTT assay. It is filed as cell-based. The settings on record: L02, 24 h.
For experiment [6], the system named is HK-2. The experiment in a line: Cytotoxicity against human HK2 cells assessed as cell viability incubated for 24 hrs by MTT assay. It counts as cell-based. To be noted: HK-2, 24 h.
Experiment [7] can be described thus: Inhibition of TrxR in human HT-29 cells incubated for 30 mins in presence of insulin, NADPH and Trx by DTNB reagent based assay. It counts as cell-based.
The nature of experiment [8]: Inhibition of TrxR in human HT-29 cells incubated for 60 mins in presence of insulin, NADPH and Trx by DTNB reagent based assay. It is filed as cell-based.
Experiment [9] can be described thus: Inhibition of TrxR in human HT-29 cells incubated for 90 mins in presence of insulin, NADPH and Trx by DTNB reagent based assay. It is filed as cell-based.

The term IC50 denotes the point on the concentration scale where inhibition reaches its midpoint.

A value given as a limit tells only on which side of the number the result lay.

Take `O=c1c(O)c(-c2cc(O)c(O)c(O)c2)oc2cc(O)cc(O)c12` [MYRICETIN]: the IC50 in experiment [1], in experiment [2], in experiment [3], in experiment [4], in experiment [5] and in [6] was above 20000 nM throughout. For the same compound, the IC50 was 930 nM in experiment [7], 720 nM in [8] and 650 nM in experiment [9].
On to `C=CC(=O)O[C@H]1C=CC(=O)[C@]2(C)[C@H]3CC[C@]4(C)C([C@H](C)[C@H]5CC(C)=C(C)C(=O)O5)=C[C@H](OC(C)=O)[C@@]4(O)[C@@H]3C[C@H]3O[C@]132`, for which the IC50 in [1] was 780 nM; in experiment [2], 330 nM; in experiment [3] it was 520 nM; in experiment [4], 1060 nM; in experiment [7], 3910 nM; in experiment [8], 2850 nM. Further, in [9], the IC50 came out at 2060 nM.
For `CC(=O)O[C@H]1C=C([C@H](C)[C@H]2CC(C)=C(C)C(=O)O2)[C@@]2(C)CC[C@H]3[C@@H](C[C@H]4O[C@]45[C@@H](OC(=O)CCC(=O)N(C)C)C=CC(=O)[C@]35C)[C@]12O`, the IC50 in experiment [7] came to 3810 nM; in experiment [8], 2910 nM; in [9], 2150 nM.
With `CC(=O)O[C@H]1C=C([C@H](C)[C@H]2CC(C)=C(C)C(=O)O2)[C@@]2(C)CC[C@H]3[C@@H](C[C@H]4O[C@]45[C@@H](OC(=O)CNC(=O)OC(C)(C)C)C=CC(=O)[C@]35C)[C@]12O`, the IC50 in experiment [1] stood at 630 nM; in experiment [2] it was 470 nM; in [3], 640 nM; in experiment [4], 2160 nM.
Taken in the same sequence, the figures for `CC(=O)O[C@H]1C=C([C@H](C)[C@H]2CC(C)=C(C)C(=O)O2)[C@@]2(C)CC[C@H]3[C@@H](C[C@H]4O[C@]45[C@@H](OC(=O)/C=C/c4cccs4)C=CC(=O)[C@]35C)[C@]12O` were 430 nM, 380 nM, 530 nM and 630 nM.
Taken in the same sequence, the figures for `CC(=O)O[C@H]1C=C([C@H](C)[C@H]2CC(C)=C(C)C(=O)O2)[C@@]2(C)CC[C@H]3[C@@H](C[C@@H](O)[C@@]4(Cl)[C@@H](O)C=CC(=O)[C@]34C)[C@]12O` were above 20000 nM, above 20000 nM, above 20000 nM and above 20000 nM.
Regarding `CCN(CC)C(=O)O[C@H]1C=CC(=O)[C@]2(C)[C@H]3CC[C@]4(C)C([C@H](C)[C@H]5CC(C)=C(C)C(=O)O5)=C[C@H](OC(C)=O)[C@@]4(O)[C@@H]3C[C@H]3O[C@]132`, the IC50 in [1] stood at 750 nM; in experiment [2] it was 430 nM; in [3] it was 690 nM; in experiment [4], 1210 nM.
For the compound `CCO/C=C/C(=O)O[C@H]1C=CC(=O)[C@]2(C)[C@H]3CC[C@]4(C)C([C@H](C)[C@H]5CC(C)=C(C)C(=O)O5)=C[C@H](OC(C)=O)[C@@]4(O)[C@@H]3C[C@H]3O[C@]132`, the concentration for half-maximal inhibition (IC50) is 590 nM in [1], 670 nM in experiment [2], 570 nM in experiment [3] and 1210 nM in experiment [4].
Take `CCN(CC)C(=O)/C=C/C(=O)O[C@H]1C=CC(=O)[C@]2(C)[C@H]3CC[C@]4(C)C([C@H](C)[C@H]5CC(C)=C(C)C(=O)O5)=C[C@H](OC(C)=O)[C@@]4(O)[C@@H]3C[C@H]3O[C@]132`: the IC50 was found to be 300 nM in experiment [1], 250 nM in experiment [2], 310 nM in experiment [3] and 450 nM in [4].
Taken in the same sequence, the figures for `CC(=O)O[C@H]1C=C([C@H](C)[C@H]2CC(C)=C(C)C(=O)O2)[C@@]2(C)CC[C@H]3[C@@H](C[C@H]4O[C@]45C(=O)C=CC(=O)[C@]35C)[C@]12O` were 3500 nM, 3110 nM, 6050 nM and above 20000 nM.
As for `CC(=O)O[C@H]1C=C([C@H](C)[C@H]2CC(C)=C(C)C(=O)O2)[C@@]2(C)CC[C@H]3[C@@H](C[C@H]4O[C@]45[C@@H](OC(=O)/C=C/c4ccc(F)cc4)C=CC(=O)[C@]35C)[C@]12O`, the half-inhibitory concentration (IC50) in experiment [1] is 720 nM; in experiment [2], 1030 nM; in experiment [3], 610 nM; in experiment [4], 1580 nM.
Taken in the same sequence, the figures for `C=C(C)C(=O)O[C@H]1C=CC(=O)[C@]2(C)[C@H]3CC[C@]4(C)C([C@H](C)[C@H]5CC(C)=C(C)C(=O)O5)=C[C@H](OC(C)=O)[C@@]4(O)[C@@H]3C[C@H]3O[C@]132` were 1120 nM, 1340 nM, 1450 nM and 2110 nM.
Consider `CCC(C)C(NC(=O)OC(C)(C)C)C(=O)O[C@H]1C=CC(=O)[C@]2(C)[C@H]3CC[C@]4(C)C([C@H](C)[C@H]5CC(C)=C(C)C(=O)O5)=C[C@H](OC(C)=O)[C@@]4(O)[C@@H]3C[C@H]3O[C@]132` (some centres undefined), for which the IC50 in experiment [1] amounted to 1080 nM; in [2], 570 nM; in [3] it was 1660 nM; in [4] it was 4810 nM.
On to `CC(=O)O[C@H]1C=C([C@H](C)[C@H]2CC(C)=C(C)C(=O)O2)[C@@]2(C)CC[C@H]3[C@@H](C[C@H]4O[C@]45[C@@H](OC(=O)C(CC(C)C)NC(=O)OC(C)(C)C)C=CC(=O)[C@]35C)[C@]12O` (some centres undefined), for which the IC50 stood at 780 nM in experiment [1], 330 nM in experiment [2], 520 nM in [3] and 1060 nM in [4].
As for `CC(=O)O[C@H]1C=C([C@H](C)[C@H]2CC(C)=C(C)C(=O)O2)[C@@]2(C)CC[C@H]3[C@@H](C[C@H]4O[C@]45[C@@H](OC(=O)/C=C/c4cccc(C(F)(F)F)c4)C=CC(=O)[C@]35C)[C@]12O`, the IC50 in [1] turned out to be 810 nM; in experiment [2] it was 650 nM; in [3], 420 nM; in experiment [4], 1390 nM.
Take `C/C=C/C(=O)O[C@H]1C=CC(=O)[C@]2(C)[C@H]3CC[C@]4(C)C([C@H](C)[C@H]5CC(C)=C(C)C(=O)O5)=C[C@H](OC(C)=O)[C@@]4(O)[C@@H]3C[C@H]3O[C@]132`: the IC50 in experiment [1] was 370 nM; in [2], 230 nM; in [3], 300 nM; in [4], 530 nM.
Consider `CC(=O)O[C@H]1C=C([C@H](C)[C@H]2CC(C)=C(C)C(=O)O2)[C@@]2(C)CC[C@H]3[C@@H](C[C@H]4O[C@]45[C@@H](OC(=O)C(C)NC(=O)OC(C)(C)C)C=CC(=O)[C@]35C)[C@]12O` (some centres undefined), for which the IC50 was 1790 nM in experiment [1], 1950 nM in experiment [2], 2810 nM in experiment [3] and 4330 nM in [4].
Taken in the same sequence, the figures for `CC(=O)O[C@H]1C=C([C@H](C)[C@H]2CC(C)=C(C)C(=O)O2)[C@@]2(C)CC[C@H]3[C@@H](C[C@H]4O[C@]45[C@@H](OC(=O)N4CCOCC4)C=CC(=O)[C@]35C)[C@]12O` were 990 nM, 780 nM, 670 nM and 3890 nM.
For `CC(=O)O[C@H]1C=C([C@H](C)[C@H]2CC(C)=C(C)C(=O)O2)[C@@]2(C)CC[C@H]3[C@@H](C[C@H]4O[C@]45[C@@H](OC(=O)CCc4ccccc4)C=CC(=O)[C@]35C)[C@]12O`, the IC50 in experiment [1] was found to be 4050 nM; in [2], 5840 nM; in experiment [3] it was 5760 nM; in experiment [4], 8180 nM.
`CC(=O)O[C@H]1C=C([C@H](C)[C@H]2CC(C)=C(C)C(=O)O2)[C@@]2(C)CC[C@H]3[C@@H](C[C@H]4O[C@]45[C@@H](O)C(N(C)CC(=O)O)CC(=O)[C@]35C)[C@]12O` (some centres undefined): the IC50 in experiment [1], in experiment [2], in experiment [3] and in experiment [4] was above 20000 nM each time.
For the compound `CC(=O)O[C@H]1C=C([C@H](C)[C@H]2CC(C)=C(C)C(=O)O2)[C@@]2(C)CC[C@H]3[C@@H](C[C@H]4O[C@]45[C@@H](OC(=O)/C=C/c4ccco4)C=CC(=O)[C@]35C)[C@]12O`, the IC50 in experiment [1] came out at 450 nM; in [2], 430 nM; in [3], 310 nM; in experiment [4] it was 760 nM.
Taken in the same sequence, the figures for `C/C=C/C=C/C(=O)O[C@H]1C=CC(=O)[C@]2(C)[C@H]3CC[C@]4(C)C([C@H](C)[C@H]5CC(C)=C(C)C(=O)O5)=C[C@H](OC(C)=O)[C@@]4(O)[C@@H]3C[C@H]3O[C@]132` were 1420 nM, 1350 nM, 1520 nM and 2620 nM.
Taken in the same sequence, the figures for `CC(=O)O[C@H]1C=C([C@H](C)[C@H]2CC(C)=C(C)C(=O)O2)[C@@]2(C)CC[C@H]3[C@@H](C[C@H]4O[C@]45[C@@H](OC(=O)N4CCCC4)C=CC(=O)[C@]35C)[C@]12O` were 1120 nM, 890 nM, 1230 nM and 2140 nM.

The values above are taken from ChEMBL document CHEMBL4665792 (J Med Chem, 2020).
